Tested on: freshly isolated crypt cells
Assay: ATP-induced Ca2+ rise in freshly isolated crypt cells (Fura-2)
Format: cell-based, mouse
Details: low concentrations of niclosamide
Experimental: All methods were carried out as specified in the previous examples. For the measurements of Ca^2+, crypts were isolated from inverted proximal mouse colons using Ca^2+-free Ringer solution with 1 mM DTT and 1 μM indomethacin for 20 min at 37° C. Crypts were loaded with 10 μM Fura2-AM (Biotum, USA) and 1 mg/ml BSA (Sigma-Aldrich) in ringer solution for 1 h at RT. Intracellular Ca^2+ was measured by loading crypts with […] Fura-2/AM and 0.02% Pluronic F-127 (Life Technologies, Germany) in ringer solution for 1 h at room temperature. Fluorescence was detected in cells perfused with Ringer's solution at 37° C. using an inverted microscope (Axiovert S100, Zeiss, Germany) and a high-speed polychromator system (VisiChrome, Germany). Fura-2 was excited at 340/380 nm, and emission was recorded between 470 and 550 nm using a CoolSnap camera (CoolSnap HQ, Visitron).
It was examined whether niclosamide inhibits intestinal mucus secretion. To this end, niclosamide was added to the perfusate. […] The present inventors detected reduced Ca^2+ increase upon ATP-stimulation of freshly isolated crypt cells from Vil1-Cre TMEM16F^flox/flox mice. […] Increase in FM4-64 fluorescence in the plasma membrane is a marker for membrane exocytosis. The present inventors detected that ATP-stimulation (but not cholinergic stimulation) of HEK293 cells expressing TMEM16F induced FM4-64 fluorescence, i.e. exocytosis.

SMILES: O=C(Nc1ccc([N+](=O)[O-])cc1Cl)c1cc(Cl)ccc1O [niclosamide, 5-chloro-N-(2-chloro-4-nitrophenyl)-2-hydroxybenzamide]
- ATP-induced Ca2+ rise: potently inhibited
